From the NIST ThermoML archive (doi:10.1021/je0340248)

Assay: xn = mol fraction of the nth substance listed
Settings: 101 kPa, Liquid

OCCOCCO [diethylene glycol] + CCOC(C)=O
Settings	mass density, 298.15 K [kg/m3]	mass density, 303.15 K [kg/m3]	mass density, 308.15 K [kg/m3]	mass density, 313.15 K [kg/m3]	speed of sound, 298.15 K [m/s]	speed of sound, 308.15 K [m/s]	viscosity, 298.15 K [mPa·s]	viscosity, 308.15 K [mPa·s]
x2 = 0.0441	1103.89	1100.06	1096.4	1092.83	1557	1527	26.54	14.6
x2 = 0.1491	1081.32	1077.52	1073.43	1069.24	1501	1467	19.33	10.14
x2 = 0.2504	1059.83	1055.84	1051.57	1047.06	1444	1410	13.79	7.076
x2 = 0.3491	1039	1034.73	1030.34	1025.66	1393	1358	9.631	4.946
x2 = 0.4487	1017.94	1013.34	1008.79	1004.01	1346	1311	6.504	3.42
x2 = 0.5011	1006.8	1002.03	997.36	992.53	1322	1287	5.226	2.808
x2 = 0.5485	996.65	991.74	986.94	982.07	1301	1267	4.257	2.345
x2 = 0.6492	974.85	969.64	964.5	959.48	1261	1226	2.692	1.591
x2 = 0.7505	952.44	946.98	941.47	936.2	1223	1188	1.645	1.068
x2 = 0.8492	930.05	924.36	918.52	912.88	1189	1151	0.988	0.719
x2 = 0.9445	907.81	901.89	895.89	889.73	1157	1116	0.587	0.487

OCCOCCO [diethylene glycol] + COC(C)=O
Settings	mass density, 298.15 K [kg/m3]	mass density, 303.15 K [kg/m3]	mass density, 308.15 K [kg/m3]	mass density, 313.15 K [kg/m3]	speed of sound, 298.15 K [m/s]	speed of sound, 308.15 K [m/s]	viscosity, 298.15 K [mPa·s]	viscosity, 308.15 K [mPa·s]
x2 = 0.0406	1107.83	1103.83	1100.41	1097.07	1562	1533	26.42	14.2
x2 = 0.1512	1091.77	1087.47	1083.89	1080.13	1513	1485	18.27	8.812
x2 = 0.2516	1076.55	1071.84	1068.15	1063.99	1472	1441	12.72	5.78
x2 = 0.3488	1061.26	1056.15	1052.35	1047.79	1431	1398	8.747	3.883
x2 = 0.44	1046.36	1040.88	1036.96	1032.05	1392	1357	6.023	2.698
x2 = 0.4926	1037.46	1031.79	1027.79	1022.69	1370	1334	4.811	2.196
x2 = 0.5504	1027.35	1021.49	1017.4	1012.1	1345	1308	3.728	1.757
x2 = 0.6509	1008.76	1002.63	998.36	992.71	1301	1260	2.345	1.203
x2 = 0.751	988.53	982.17	977.74	971.76	1258	1213	1.44	0.834
x2 = 0.8504	966.18	959.59	955.04	948.73	1214	1168	0.866	0.586
x2 = 0.9429	942.76	935.89	931.35	924.7	1174	1127	0.527	0.426
